Source: patent EP0745599A2, “1-(3-Heterocyclylphenyl)-s-triazine-2,4,6-oxo or thiotrione herbicidal agents” (American Cyanamid Company, priority 1995, dated 1996)

Experiments:
Assay type in all cases: in vivo
Settings in all cases: rated four to five weeks after treatment
IPOMOEA SPP. = assay: Preemergence herbicidal evaluation, IPOSS (Morningglory Spp.)
From the text: (§1) Results of herbicide evaluation are expressed on a rating scale (0-9). The scale is based upon a visual observation of plant stand, vigor, malformation, size, chlorosis and overall plant appearance as compared with a control.
(§2) The preemergence herbicidal activity of the test compounds of the present invention is exemplified by the following tests in which the seeds of a variety of monocotyledonous and dicotyledonous plants are separately mixed with potting soil and planted on top of approximately one inch of soil in separate pint cups. After planting, the cups are sprayed with the selected aqueous acetone solution containing test compound in sufficient quantity to provide the equivalent of about 0.125 to 0.50 kg per hectare of test compound per cup. The treated cups are then placed on greenhouse benches, watered and cared for in accordance with conventional greenhouse procedures. From four to five weeks after treatment, the tests are terminated and each cup is examined and rated according to the rating system provided in Example 42.

[1] = tested on: AMBROSIA ARTEMISIIFOLIA, L.; assay: Preemergence herbicidal evaluation, AMBEL (Ragweed, Common)
From the text: as §1, §2

[2] = tested on: TRITICUM AESTIVUM, CV. APOLLO; assay: Preemergence herbicidal evaluation, TRZAWO (Wheat, Winter, CV. APOLLO)
From the text: as §1, §2

[3] = tested on: GLYCINE MAX(L)MERR. CV. WILLIAMS; assay: Preemergence herbicidal evaluation, GLXMAW (Soybean, Williams)
From the text: as §1, §2

[4] = tested on: SETARIA VIRIDIS, (L) BEAU; assay: Postemergence herbicidal evaluation, SETVI (Foxtail, Green)
Description: (§3) In the tests, seedling plants are grown in jiffy flats for about two weeks. The test compounds are dispersed in 50/50 acetone/water mixtures containing 0.5% TWEEN®20, a polyoxyethylene sorbitan monolaurate surfactant of Atlas Chemical Industries, in sufficient quantities to provide the equivalent of about 0.125 kg to 0.500 kg per hectare of active compound when applied to the plants through a spray nozzle operating at 40 psi for a predetermined time. After spraying, the plants are placed on greenhouse benches and are cared for in the usual manner, commensurate with conventional greenhouse practices. From four to five weeks after treatment, the seedling plants are examined and rated according to the rating system set forth below. Where more than one test is involved for a given compound, the data are averaged.
as §1

[5] = tested on: ORYZA SATIVA, L. TEBONNET; assay: Preemergence herbicidal evaluation, ORYSAT (Rice, Tebonnet)
From the text: as §1, §2

ZEA MAYS L. = assay: Preemergence herbicidal evaluation, ZEAMX (Corn, Field)
From the text: as §1, §2

[6] = tested on: ABUTILON THEOPHRASTI, MEDIC.; assay: Preemergence herbicidal evaluation, ABUTH (Velvetleaf)
From the text: as §1, §2

[7] = tested on: ECHINOCHLOA CRUS-GALLI, (L) BEAU; assay: Postemergence herbicidal evaluation, ECHCG (Barnyardgrass)
Description: as §3, §1

Cn1c(=O)n(CC(=O)O)c(=O)n(-c2cc(N3C(=O)C4=C(CCCC4)C3=O)c(F)cc2Cl)c1=O [Compound 3, 3-[2-Chloro-5-(1-cyclohexene-1,2-dicarbox-imido)-4-fluorophenyl]tetrahydro-5-methyl-2,4,6-trioxo-s-triazine-1(2H)-acetic acid]
0.0: Herbicide rating (0-9) IPOSS (IPOMOEA SPP.; 0.125 kg/ha) | Herbicide rating (0-9) IPOSS (IPOMOEA SPP.; 0.250 kg/ha) | Herbicide rating (0-9) IPOSS (IPOMOEA SPP.; 0.500 kg/ha) | Herbicide rating (0-9) AMBEL ([1]; 0.125 kg/ha) | Herbicide rating (0-9) AMBEL ([1]; 0.250 kg/ha) | Herbicide rating (0-9) AMBEL ([1]; 0.500 kg/ha) | Herbicide rating (0-9) TRZAWO ([2]; 0.125 kg/ha) | Herbicide rating (0-9) TRZAWO ([2]; 0.250 kg/ha) | Herbicide rating (0-9) TRZAWO ([2]; 0.500 kg/ha) | Herbicide rating (0-9) GLXMAW ([3]; 0.125 kg/ha) | Herbicide rating (0-9) GLXMAW ([3]; 0.250 kg/ha) | Herbicide rating (0-9) GLXMAW ([3]; 0.500 kg/ha) | Herbicide rating (0-9) SETVI ([4]; 0.125 kg/ha) | Herbicide rating (0-9) SETVI ([4]; 0.250 kg/ha) | Herbicide rating (0-9) SETVI ([4]; 0.500 kg/ha) | Herbicide rating (0-9) ORYSAT ([5]; 0.125 kg/ha) | Herbicide rating (0-9) ORYSAT ([5]; 0.250 kg/ha) | Herbicide rating (0-9) ORYSAT ([5]; 0.500 kg/ha) | Herbicide rating (0-9) ZEAMX (ZEA MAYS L.; 0.125 kg/ha) | Herbicide rating (0-9) ZEAMX (ZEA MAYS L.; 0.250 kg/ha) | Herbicide rating (0-9) ZEAMX (ZEA MAYS L.; 0.500 kg/ha) | Herbicide rating (0-9) ABUTH ([6]; 0.125 kg/ha) | Herbicide rating (0-9) ABUTH ([6]; 0.250 kg/ha) | Herbicide rating (0-9) ABUTH ([6]; 0.500 kg/ha) | Herbicide rating (0-9) ECHCG ([7]; 0.125 kg/ha) | Herbicide rating (0-9) ECHCG ([7]; 0.250 kg/ha) | Herbicide rating (0-9) ECHCG ([7]; 0.500 kg/ha)
